“Also recorded” adds a separate entry of the source. Marks after values point to notes of the source that are not given here.
Legend:
[1] = tested on: hyperuricemic gout patients; assay: FOCUS long-term open-label study: eGFR, serum creatinine and serum urate; assay type: in vivo, human; conditions: for GFR (estimated by MDRD, mean) / sCr (mean) / sUA (mean): all subjects
Procedure: The objective of this study was to assess the long-term renal function effects, measured as estimated GFR (eGFR), in a cohort of hyperuricemic gout patients treated febuxostat. Febuxostat was administered at a dosing regimen that chronically maintained a serum urate level (sUA) of <6.0 mg/dL. Of 145 subjects completing a 28-day, double-blind, placebo-controlled trial (See, Becker M A, Schumacher H R, Jr., Wortmann R L, MacDonald P A, Palo […], et al., “Febuxostat, a novel nonpurine selective inhibitor of xanthine oxidase: a twenty-eight-day, multicenter, phase II, randomized, double-blind, placebo-controlled, dose-response clinical trial examining safety and efficacy in patients with gout.” Arthritis and rheumatism, March: 52(3):916-23 (2005)), 116 enrolled in the long-term, 5.5 year Febuxostat Open-label Clinical trial of Urate-lowering efficacy and […] (FOCUS) study. Baseline data were collected upon entry to the initial 28-day trial. Subjects initially received febuxostat 80 mg/day; between weeks 4 to 24 the dose of febuxostat could be titrated to 40 or 120 mg/day to maintain a sUA between <6.0 mg/dL but not lower than 3.0 mg/dL. Age 18 to 85 years with a history or presence of gout as defined by the American College of Rheumatology (Wallace S L, Robinson […], Yu T F, “Preliminary criteria for the classification of the acute arthritis of primary gout.” Arthritis and rheumatism. 1977 April; 20(3):895-900 (1977)). sUA level of ≧8.0 mg/dL at screening for the initial 28-day, double-blind study. […] GFR was estimated (eGFR) using the Modification of Diet in Renal Disease (MDRD) equation shown below: […] otherwise, S=0.742 if subject is female and 1 if male. The predictors, time (year), average sUA on study drug, baseline eGRF, and sUA change from baseline were evaluated for a relationship to eGFR change from baseline using a repeated measures linear model. Backwards selection (p=0.1) was used to reduce the model down to those predictors that best explained the eGRF change from baseline.

remnant kidney (RK) rats = assay: Renal arteriolar morphology; assay type: in vivo, Male Wistar rats
Procedure: Male Wistar rats (295-340 g) were used to produce rats with remnant kidney (RK) as follows. […] Rats were then assigned to one of four treatment groups: Group 1, RK control rats (n=7); Group 2, RK+febuxostat (Fx) rats (n=8); Group 3, RK+oxonic acid (OA) rats (n=6); and Group 4, RK+OA+Fx (n=10). Oxonic acid (OA) (Sigma-Aldrich, St Louis Mo., USA), administered at 750 mg/kg body weight daily by oral gavage, was given starting the day after the 5⁄6 nephrectomy. Beginning immediately following the surgery, febuxostat was administered in drinking water at 30 mg/L (3-4 mg/kg/day), whereas the respective controls received only drinking water (with 3.5 mg/L of NaCl added to keep an equivalent salt concentration to the Fx-containing water). After the micropuncture study, kidneys were washed by perfusion with phosphate-buffered saline and then fixed with 4% paraformaldehyde. Renal biopsies were embedded in paraffin. Sections of 4-μm thick fixed tissue were stained with periodic acid Schiff (PAS) reagent and Masson's trichrome staining. Arteriolar morphology was assessed by indirect peroxidase immunostaining for alpha-smooth muscle actin (DAKO Corp, Carpinteria, Calif., USA). Renal sections incubated with normal rabbit serum were used as negative controls for immunostaining against alpha smooth-muscle actin. For each arteriole, the outline of the vessel and its internal lumen (excluding the endothelium) were generated using computer analysis to calculate the total medial area (outline inline), in 10 arterioles per biopsy. The media/lumen ratio was calculated by the outline/inline relationship (See, Sanchez-Lozada L G et al., “Mild hyperuricemia induces glomerular hypertension in normal rats”, Am J Physiol Renal Physiol 283:[…]-[…] (2002); Sanchez-Lozada L G, et al., “Mild hyperuricemia induces vasoconstriction and maintains glomerular hypertension in normal and remnant kidney rats,” Kidney Int 67:237-247 (2005), the contents of each are herein incorporated by reference). Quantifications were performed blinded.

## Cc1nc(-c2ccc(OCC(C)C)c(C#N)c2)sc1C(=O)O [febuxostat, 2-[3-cyano-4-(2-methylpropoxy)phenyl]-4-methylthiazole-5-carboxylic acid]
[1]; 5-year study period
  Measures of renal function (GFR estimated by MDRD and sCr) (in words): stable over the 5-year study period
[1]; 18 subjects who completed FOCUS and enrolled in another febuxostat study
  Baseline eGFR in a subsequent febuxostat study vs FOCUS baseline (in words): all but 1 of these subjects had a baseline eGRF in the new study that was higher
[1]; Year 1 (n = 115)
  GFR (estimated by MDRD, mean): 65.7 mL/min
  sCr (mean): 1.2 mg/dL
[1]; Year 1 (n = 115), excludes initial 28-day trial
  sUA (mean): 5.1 mg/dL
[1]; Year 2 (n = 84)
  GFR (estimated by MDRD, mean): 66.0 mL/min
  sCr (mean): 1.2 mg/dL
  sUA (mean): 5.1^b mg/dL
[1]; Year 3 (n = 71)
  GFR (estimated by MDRD, mean): 63.2 mL/min
  sCr (mean): 1.3 mg/dL
  sUA (mean): 5.0 mg/dL
[1]; Year 4 (n = 67)
  GFR (estimated by MDRD, mean): 64.2 mL/min
  sCr (mean): 1.3 mg/dL
  sUA (mean): 4.7^b mg/dL
[1]; Year 5 (n = 60)
  GFR (estimated by MDRD, mean): 65.0 mL/min
  sCr (mean): 1.3 mg/dL
  sUA (mean): 4.8 mg/dL
[1]; baseline GFR <60, Year 1
  mean serum urate (sUA): 5.1 mg/dL
[1]; baseline GFR <60, Year 2
  mean serum urate (sUA): 4.8 mg/dL
[1]; baseline GFR <60, Year 3
  mean serum urate (sUA): 4.8 mg/dL
[1]; baseline GFR <60, Year 4
  mean serum urate (sUA): 4.5 mg/dL
[1]; baseline GFR <60, Year 5
  mean serum urate (sUA): 4.6 mg/dL
[1]; baseline GFR ≧60, Year 1
  mean serum urate (sUA): 5.2 mg/dL
[1]; baseline GFR ≧60, Year 2
  mean serum urate (sUA): 5.1 mg/dL
[1]; baseline GFR ≧60, Year 3
  mean serum urate (sUA): 5.1 mg/dL
[1]; baseline GFR ≧60, Year 4
  mean serum urate (sUA): 4.7 mg/dL
[1]; baseline GFR ≧60, Year 5
  mean serum urate (sUA): 4.9 mg/dL
[1]; limited data obtained during Year 6
  eGFR benefit (in words): even greater evidence of eGFR benefit
[1]; modeling, repeated measures linear model
  Predicted eGFR improvement for each 1.0 mg/dL reduction in sUA: 1.0 mL/min
[1]; p=0.02
  Relationship of sUA reduction from baseline to eGFR (in words): correlated with greater improvements in eGFR over time
[1]; throughout the study, regardless of baseline eGFR
  Maintenance of sUA: < 6.0 mg/dL
Remnant kidney (RK) rats; RK rats vs RK control group
  Thickening of preglomerular vessels / afferent arteriole (in words): prevented the thickening of preglomerular vessels
Remnant kidney (RK) rats; RK+OA rats treated with febuxostat
  Additional thickening of the afferent arteriole (in words): prevented
Remnant kidney (RK) rats; febuxostat-treated rats vs respective untreated cohorts
  Media/lumen (M/L) ratio (in words): no statistically significant differences; also recorded: tendency for the M/L ratio to be lower

From US20130143886A1, “METHODS FOR PRESERVING AND/OR INCREASING RENAL FUNCTION USING XANTHINE OXIDOREDUCTASE INHIBITORS” (priority 2006, published 2013)
